Reference: ChEMBL document CHEMBL1201862, “PubChem BioAssay data set” (2004)
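Step 1: Grow cells in 96-well plates. Step 2: Expose to compound for 48 hours at 5 concentrations. Step 3: Interpolate endpoints linearly; if unreached, use highest concentration. GI50 = concentration required for 50% inhibition of growth.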 Active and inactive are the calls of the source. No stated cut-off is given here; in the data, active = GI50 up to about 1.1 µM and inactive = higher.

What was measured:
Test in all cases: inhibition of tumour cell growth, NCI panel, 48 h
NCI-H226 = test system: NCI-H226
SW-620 = test system: SW-620
SNB-19 = test system: SNB-19
HOP-62 = test system: HOP-62
NCI-H522 = test system: NCI-H522
786-0 = test system: 786-0
OVCAR-8 = test system: OVCAR-8
COLO 205 = test system: COLO 205
SF-539 = test system: SF-539
CAKI-1 = test system: CAKI-1
SF-268 = test system: SF-268
SN12C = test system: SN12C
SNB-75 = test system: SNB-75
MDA-MB-231 = test system: MDA-MB-231
IGROV-1 = test system: IGROV-1
OVCAR-3 = test system: OVCAR-3
UACC-62 = test system: UACC-62
UO-31 = test system: UO-31
HT-29 = test system: HT-29
HCT-15 = test system: HCT-15

Row | Structure (SMILES) | GI50 (NCI-H226) | GI50 (SW-620) | GI50 (SNB-19) | GI50 (HOP-62) | GI50 (NCI-H522) | GI50 (786-0) | GI50 (OVCAR-8) | GI50 (COLO 205) | GI50 (SF-539) | GI50 (CAKI-1) | GI50 (SF-268) | GI50 (SN12C) | GI50 (SNB-75) | GI50 (MDA-MB-231) | GI50 (IGROV-1) | GI50 (OVCAR-3) | GI50 (UACC-62) | GI50 (UO-31) | GI50 (HT-29) | GI50 (HCT-15) [µM]
1 | O=C(N/N=C/c1ccc([N+](=O)[O-])cc1)Nc1ccc(Br)cc1 | > 100 µM (inactive) | 52 µM (inactive) | 76.4 µM (inactive) | 32.9 µM (inactive) | 64.7 µM (inactive) | 84.7 µM (inactive) | 40.9 µM (inactive) | 63.2 µM (inactive) | > 100 µM (inactive) | 83.6 µM (inactive) | 52.2 µM (inactive) | 60 µM (inactive) | > 100 µM (inactive) | > 100 µM (inactive) | 55.5 µM (inactive) | 32.2 µM (inactive) | 15.3 µM (inactive) | > 100 µM (inactive) | 97.1 µM (inactive) | > 100
2 | C=C(C)C1CC=C(C)C2(C1)OCC(C)(C)C(C)O2 (stereo not given) | 18.3 µM (inactive) | 19.1 µM (inactive) | 18.3 µM (inactive) | 16.6 µM (inactive) | 17.7 µM (inactive) | 17.6 µM (inactive) | 16.5 µM (inactive) | 18.1 µM (inactive) | 22.2 µM (inactive) | 16.3 µM (inactive) | 19.8 µM (inactive) | 18.2 µM (inactive) | 22 µM (inactive) | 21.7 µM (inactive) | 22.9 µM (inactive) | 16.1 µM (inactive) | 15.8 µM (inactive) | 20.3 µM (inactive) | 15.5 µM (inactive) | 16.4
3 | COC(=O)C1Cc2cccc(C)c2C1 (stereo not given) | > 100 µM (inactive) | > 100 µM (inactive) | > 100 µM (inactive) | > 100 µM (inactive) | 51.8 µM (inactive) | > 100 µM (inactive) | > 100 µM (inactive) | > 100 µM (inactive) | > 100 µM (inactive) | > 100 µM (inactive) | > 100 µM (inactive) | > 100 µM (inactive) | > 100 µM (inactive) | > 100 µM (inactive) | > 100 µM (inactive) | > 100 µM (inactive) | > 100 µM (inactive) | > 100 µM (inactive) | > 100 µM (inactive) | 37.3
4 | CCCC(=O)OCC1OC(n2cc(F)c(=O)[nH]c2=O)CC1O (stereo not given) | > 7.57 µM (inactive) | > 10 µM (inactive) | > 10 µM (inactive) | 0.0553 µM (active) | 3.84 µM (inactive) | 0.337 µM (active) | 0.118 µM (active) | 2.22 µM (inactive) | 0.00432 µM (active) | 0.0402 µM (active) | 0.0306 µM (active) | 0.181 µM (active) | 0.0871 µM (active) | > 9.14 µM (inactive) | > 8.09 µM (inactive) | > 2.11 µM (inactive) | 0.126 µM (active) | 0.094 µM (active) | 0.721 µM (active) | > 7.53
5 | COc1cccc(OC)c1/C=C1\OC(=O)c2cccc(OC)c21 | 3.84 µM (inactive) | 3.37 µM (inactive) | 4.74 µM (inactive) | 5.62 µM (inactive) | 2.5 µM (inactive) | 5.02 µM (inactive) | 4.59 µM (inactive) | 2.88 µM (inactive) | 2.3 µM (inactive) | 4.68 µM (inactive) | 6.4 µM (inactive) | 20 µM (inactive) | 2.96 µM (inactive) | 12.8 µM (inactive) | 4.71 µM (inactive) | 2.51 µM (inactive) | 2.62 µM (inactive) | 5.47 µM (inactive) | 2.11 µM (inactive) | 2.24
6 | O=C(N/N=C/c1ccc([N+](=O)[O-])cc1)Nc1ccc(C(=O)O)cc1 | 22.2 µM (inactive) | 40.9 µM (inactive) | 38.6 µM (inactive) | 21.6 µM (inactive) | 7.85 µM (inactive) | 39.1 µM (inactive) | 28.6 µM (inactive) | 23.1 µM (inactive) | 49.3 µM (inactive) | 28.2 µM (inactive) | 44 µM (inactive) | 29.9 µM (inactive) | 46.3 µM (inactive) | 28.6 µM (inactive) | 33.1 µM (inactive) | 4.54 µM (inactive) | 26.4 µM (inactive) | 22.1 µM (inactive) | 23.8 µM (inactive) | 25.5
7 | N#CC(c1ccccc1)c1cccc2ccccc12 (stereo not given) | > 100 µM (inactive) | 38.4 µM (inactive) | 53.5 µM (inactive) | 90.2 µM (inactive) | 22 µM (inactive) | 69.5 µM (inactive) | 27.4 µM (inactive) | 40.8 µM (inactive) | 30.6 µM (inactive) | 17.4 µM (inactive) | 19.9 µM (inactive) | 68.4 µM (inactive) | > 100 µM (inactive) | 48.6 µM (inactive) | 19.9 µM (inactive) | 29.9 µM (inactive) | 52.2 µM (inactive) | 28.2 µM (inactive) | 43.2 µM (inactive) | 37.9
8 | C[N+]12CCCCC1C(COc1cccc3cccnc13)CCC2 (stereo not given) | 59.6 µM (inactive) | > 100 µM (inactive) | > 100 µM (inactive) | 72.9 µM (inactive) | > 100 µM (inactive) | > 100 µM (inactive) | > 100 µM (inactive) | > 100 µM (inactive) | > 100 µM (inactive) | > 100 µM (inactive) | > 100 µM (inactive) | > 100 µM (inactive) | > 100 µM (inactive) | 91.2 µM (inactive) | 75.5 µM (inactive) | 26.6 µM (inactive) | > 100 µM (inactive) | > 100 µM (inactive) | 53.1 µM (inactive) | > 100
9 | COc1cc([C@@H]2c3cc4c(cc3[C@@H](Nc3ccccc3C(=O)c3ccccc3)[C@H]3COC(=O)[C@H]23)OCO4)cc(OC)c1OC | 0.431 µM (active) | 0.471 µM (active) | 1.37 µM (inactive) | 2.11 µM (inactive) | 0.31 µM (active) | 0.618 µM (active) | 0.47 µM (active) | 0.472 µM (active) | 0.259 µM (active) | 0.741 µM (active) | 0.855 µM (active) | 1.9 µM (inactive) | 0.849 µM (active) | 1.81 µM (inactive) | 0.836 µM (active) | 0.785 µM (active) | 0.362 µM (active) | 0.776 µM (active) | 0.314 µM (active) | 0.444
10 | O=[N+]([O-])C(=C(Sc1ccccc1)Sc1ccccc1)C(Cl)=C(Cl)Cl | 0.614 µM (active) | < 0.0391 µM (active) | 10.6 µM (inactive) | 1.91 µM (inactive) | 0.0776 µM (active) | 0.0703 µM (active) | 0.23 µM (active) | 0.157 µM (active) | 2.13 µM (inactive) | 0.476 µM (active) | 2 µM (inactive) | 0.65 µM (active) | 4.54 µM (inactive) | 0.188 µM (active) | 1.19 µM (inactive) | 0.373 µM (active) | 0.75 µM (active) | 0.171 µM (active) | 0.123 µM (active) | 0.319
11 | C/C=C/[C@H]1O[C@@](O)([C@@H](C)[C@H](O)[C@H](C)[C@H]2OC(=O)/C(OC)=C/C(C)=C/[C@@H](C)[C@@H](O)[C@@H](CC)[C@@H](O)[C@H](C)C/C(C)=C/C=C/[C@@H]2OC)C[C@H](OC2CC(O)C(O)C(C)O2)[C@@H]1C (stereo not given in full) | < 0.0075 µM (active) | < 0.0075 µM (active) | 3.42 µM (inactive) | < 0.0075 µM (active) | < 0.0075 µM (active) | < 0.0075 µM (active) | < 0.0075 µM (active) | < 0.0075 µM (active) | < 0.0075 µM (active) | < 0.0075 µM (active) | < 0.0075 µM (active) | 7.78 µM (inactive) | 8.59 µM (inactive) | < 0.0075 µM (active) | < 0.0075 µM (active) | < 0.0075 µM (active) | < 0.0075 µM (active) | < 0.0075 µM (active) | < 0.0075 µM (active) | < 0.0075
12 | C=CCc1[nH]c2c(OCc3ccccc3)cc(N(CC=C)C(C)=O)cc2c1C | 17.6 µM (inactive) | 13.9 µM (inactive) | 12.8 µM (inactive) | 17.1 µM (inactive) | 13 µM (inactive) | 14.2 µM (inactive) | 13.2 µM (inactive) | 15.2 µM (inactive) | 16.3 µM (inactive) | 15.5 µM (inactive) | 12.2 µM (inactive) | 16 µM (inactive) | 10.7 µM (inactive) | 10.7 µM (inactive) | 14.4 µM (inactive) | 14.3 µM (inactive) | 14 µM (inactive) | 9.08 µM (inactive) | 8.04 µM (inactive) | 12.9
